Results: the kinase profiling compilation of Christmann-Franck et al. (2016)

What was measured:
Assay in all cases: radiometric filter-binding kinase assay
[1] = tested on: AKT2 (human), P31751 [S474D]
CAMKK2 (human) = CAMKK2 (human) (UniProt Q96RR4)
CSK (human) = CSK (human) (UniProt P41240)
CSNK1D (human) = CSNK1D (human) (UniProt P48730)
DYRK3 (human) = DYRK3 (human) (UniProt O43781)
EPHA2 (human) = EPHA2 (human) (UniProt P29317)
FGFR1 (human) = FGFR1 (human) (UniProt P11362)
FLT1 (human) = FLT1 (human) (UniProt P17948)
GSK3B (human) = GSK3B (human) (UniProt P49841)
IGF1R (human) = IGF1R (human) (UniProt P08069)
Sequence of IGF1R (human) (P08069 whole entry, looked up): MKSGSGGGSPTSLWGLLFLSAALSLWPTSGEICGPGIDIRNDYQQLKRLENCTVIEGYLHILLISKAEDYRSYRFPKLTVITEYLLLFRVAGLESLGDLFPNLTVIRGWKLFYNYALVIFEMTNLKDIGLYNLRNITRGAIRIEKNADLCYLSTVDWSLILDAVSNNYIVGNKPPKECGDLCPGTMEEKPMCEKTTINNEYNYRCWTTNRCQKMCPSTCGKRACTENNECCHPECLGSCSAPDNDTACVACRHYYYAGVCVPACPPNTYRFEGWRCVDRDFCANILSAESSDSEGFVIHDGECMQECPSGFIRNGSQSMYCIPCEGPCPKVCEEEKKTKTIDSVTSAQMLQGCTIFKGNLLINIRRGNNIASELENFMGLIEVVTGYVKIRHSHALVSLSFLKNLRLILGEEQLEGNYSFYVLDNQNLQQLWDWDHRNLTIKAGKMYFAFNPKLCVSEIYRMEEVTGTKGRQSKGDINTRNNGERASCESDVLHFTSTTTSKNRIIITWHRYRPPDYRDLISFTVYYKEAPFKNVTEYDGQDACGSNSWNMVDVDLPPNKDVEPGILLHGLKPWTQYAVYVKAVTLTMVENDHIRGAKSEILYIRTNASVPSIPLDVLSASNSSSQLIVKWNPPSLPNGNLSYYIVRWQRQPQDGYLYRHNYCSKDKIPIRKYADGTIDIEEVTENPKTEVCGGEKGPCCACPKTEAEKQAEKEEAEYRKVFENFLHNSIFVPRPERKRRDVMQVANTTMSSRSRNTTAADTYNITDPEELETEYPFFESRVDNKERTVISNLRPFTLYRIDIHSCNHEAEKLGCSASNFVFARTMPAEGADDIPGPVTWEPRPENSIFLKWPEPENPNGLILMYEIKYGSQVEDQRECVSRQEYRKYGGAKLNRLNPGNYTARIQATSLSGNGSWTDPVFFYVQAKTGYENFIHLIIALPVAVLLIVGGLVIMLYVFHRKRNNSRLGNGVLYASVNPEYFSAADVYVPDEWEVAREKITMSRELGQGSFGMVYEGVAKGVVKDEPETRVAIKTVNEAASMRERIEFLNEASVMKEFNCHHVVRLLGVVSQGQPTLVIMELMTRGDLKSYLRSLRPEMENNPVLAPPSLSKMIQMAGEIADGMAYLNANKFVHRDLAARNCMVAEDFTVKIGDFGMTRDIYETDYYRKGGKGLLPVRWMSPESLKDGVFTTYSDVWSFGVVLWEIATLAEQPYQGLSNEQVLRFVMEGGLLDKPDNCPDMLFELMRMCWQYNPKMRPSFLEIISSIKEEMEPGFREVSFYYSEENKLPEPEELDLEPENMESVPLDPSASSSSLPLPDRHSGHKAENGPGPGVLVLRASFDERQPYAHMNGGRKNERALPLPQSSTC

INSR (human) = INSR (human) (UniProt P06213)
LCK (mouse) = conditions: accession and sequence are those of the human protein
MAPK11 (human) = MAPK11 (human) (UniProt Q15759)
MAPK14 (human) = MAPK14 (human) (UniProt Q16539)
MAPK15 (human) = MAPK15 (human) (UniProt Q8TD08)
Sequence of MAPK15 (human) (Q8TD08 whole entry, looked up): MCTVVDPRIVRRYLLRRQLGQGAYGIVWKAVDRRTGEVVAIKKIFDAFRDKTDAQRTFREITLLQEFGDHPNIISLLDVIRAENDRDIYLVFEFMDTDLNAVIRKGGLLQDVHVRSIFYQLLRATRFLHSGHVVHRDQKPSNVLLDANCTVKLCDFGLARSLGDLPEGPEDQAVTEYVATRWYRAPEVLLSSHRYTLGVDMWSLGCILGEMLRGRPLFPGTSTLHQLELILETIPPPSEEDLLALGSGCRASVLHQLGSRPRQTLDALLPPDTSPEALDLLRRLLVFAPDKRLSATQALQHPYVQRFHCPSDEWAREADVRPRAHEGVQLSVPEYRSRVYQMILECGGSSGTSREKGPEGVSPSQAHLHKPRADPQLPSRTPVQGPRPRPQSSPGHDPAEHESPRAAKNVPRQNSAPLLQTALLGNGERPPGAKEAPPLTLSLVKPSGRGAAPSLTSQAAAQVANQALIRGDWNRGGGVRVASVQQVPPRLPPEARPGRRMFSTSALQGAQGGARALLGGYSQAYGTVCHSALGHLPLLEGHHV

MAPKAPK5 (human) = MAPKAPK5 (human) (UniProt Q8IW41)
Sequence of MAPKAPK5 (human) (Q8IW41 whole entry, looked up): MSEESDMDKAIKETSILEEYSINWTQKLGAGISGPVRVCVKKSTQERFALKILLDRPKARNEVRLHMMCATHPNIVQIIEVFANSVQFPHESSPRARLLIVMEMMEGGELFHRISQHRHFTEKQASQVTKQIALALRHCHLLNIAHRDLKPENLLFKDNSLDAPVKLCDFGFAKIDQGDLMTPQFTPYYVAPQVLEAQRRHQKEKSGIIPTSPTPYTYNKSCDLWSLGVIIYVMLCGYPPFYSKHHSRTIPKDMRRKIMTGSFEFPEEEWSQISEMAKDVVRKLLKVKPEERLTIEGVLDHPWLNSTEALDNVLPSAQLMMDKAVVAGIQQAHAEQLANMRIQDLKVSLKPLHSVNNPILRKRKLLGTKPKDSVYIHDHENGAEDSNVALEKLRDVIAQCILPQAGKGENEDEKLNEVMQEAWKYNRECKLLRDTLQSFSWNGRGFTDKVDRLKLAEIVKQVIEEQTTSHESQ

MELK (human) = MELK (human) (UniProt Q14680)
Sequence of MELK (human) (Q14680 whole entry, looked up): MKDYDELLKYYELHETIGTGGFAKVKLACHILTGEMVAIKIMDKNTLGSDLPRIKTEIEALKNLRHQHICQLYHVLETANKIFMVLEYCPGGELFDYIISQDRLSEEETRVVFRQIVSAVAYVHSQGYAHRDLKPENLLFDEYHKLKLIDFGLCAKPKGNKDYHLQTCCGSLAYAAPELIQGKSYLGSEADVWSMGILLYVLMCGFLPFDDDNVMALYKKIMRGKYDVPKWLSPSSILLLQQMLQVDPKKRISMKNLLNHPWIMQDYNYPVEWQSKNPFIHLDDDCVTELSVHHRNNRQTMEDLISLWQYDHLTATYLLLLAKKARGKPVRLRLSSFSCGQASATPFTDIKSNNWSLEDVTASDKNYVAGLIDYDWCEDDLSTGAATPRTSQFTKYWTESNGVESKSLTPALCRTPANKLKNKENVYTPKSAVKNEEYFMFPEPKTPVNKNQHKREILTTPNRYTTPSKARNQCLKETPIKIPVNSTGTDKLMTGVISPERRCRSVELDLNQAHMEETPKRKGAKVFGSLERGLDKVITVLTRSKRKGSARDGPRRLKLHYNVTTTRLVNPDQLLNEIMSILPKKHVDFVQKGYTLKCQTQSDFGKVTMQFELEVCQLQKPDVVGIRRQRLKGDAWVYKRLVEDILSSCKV

PRKCZ (human) = PRKCZ (human) (UniProt Q05513)
ROCK2 (rat) = conditions: accession and sequence are those of the human protein
RPS6KA3 KD1 KD2 (human) = RPS6KA3 KD1 KD2 (human) (UniProt P51812)
Sequence of RPS6KA3 KD1 KD2 (human) (P51812 whole entry, looked up): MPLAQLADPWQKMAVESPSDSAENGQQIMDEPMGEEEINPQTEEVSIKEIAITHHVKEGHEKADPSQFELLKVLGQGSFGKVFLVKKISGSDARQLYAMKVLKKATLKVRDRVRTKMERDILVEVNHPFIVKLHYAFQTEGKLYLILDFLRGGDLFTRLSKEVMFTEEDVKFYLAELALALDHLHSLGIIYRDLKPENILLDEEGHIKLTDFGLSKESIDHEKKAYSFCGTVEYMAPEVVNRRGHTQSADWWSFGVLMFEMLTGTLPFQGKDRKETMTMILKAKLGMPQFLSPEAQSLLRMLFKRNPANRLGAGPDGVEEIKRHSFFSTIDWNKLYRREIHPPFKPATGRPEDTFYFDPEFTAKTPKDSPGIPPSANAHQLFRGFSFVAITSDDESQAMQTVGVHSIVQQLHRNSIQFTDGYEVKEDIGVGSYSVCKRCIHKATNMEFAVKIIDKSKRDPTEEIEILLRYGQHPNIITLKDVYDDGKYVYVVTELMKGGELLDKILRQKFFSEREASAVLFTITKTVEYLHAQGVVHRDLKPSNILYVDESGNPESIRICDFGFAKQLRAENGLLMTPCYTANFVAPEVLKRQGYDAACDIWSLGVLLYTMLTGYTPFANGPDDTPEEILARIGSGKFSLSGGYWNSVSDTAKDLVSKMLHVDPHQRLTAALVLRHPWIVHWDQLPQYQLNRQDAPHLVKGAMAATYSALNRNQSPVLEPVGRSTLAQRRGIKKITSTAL

SRC (human) = SRC (human) (UniProt P12931)

Sequence of AKT2 (human), P31751 [S474D] (P31751 whole entry S474D, looked up): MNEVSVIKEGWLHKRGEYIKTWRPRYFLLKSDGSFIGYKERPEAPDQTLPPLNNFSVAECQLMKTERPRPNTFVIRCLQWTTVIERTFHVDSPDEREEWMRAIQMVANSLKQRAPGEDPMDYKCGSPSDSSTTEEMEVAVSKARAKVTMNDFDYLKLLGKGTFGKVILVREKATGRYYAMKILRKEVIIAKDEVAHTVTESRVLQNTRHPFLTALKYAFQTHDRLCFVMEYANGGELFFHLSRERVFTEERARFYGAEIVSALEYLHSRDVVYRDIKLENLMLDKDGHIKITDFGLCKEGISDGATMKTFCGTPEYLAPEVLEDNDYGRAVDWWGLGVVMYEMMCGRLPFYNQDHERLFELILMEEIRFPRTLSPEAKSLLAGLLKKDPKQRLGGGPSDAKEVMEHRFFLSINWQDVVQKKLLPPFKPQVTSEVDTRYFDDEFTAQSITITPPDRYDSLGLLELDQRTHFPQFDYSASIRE
Sequence of DYRK3 (human) (O43781 whole entry, looked up): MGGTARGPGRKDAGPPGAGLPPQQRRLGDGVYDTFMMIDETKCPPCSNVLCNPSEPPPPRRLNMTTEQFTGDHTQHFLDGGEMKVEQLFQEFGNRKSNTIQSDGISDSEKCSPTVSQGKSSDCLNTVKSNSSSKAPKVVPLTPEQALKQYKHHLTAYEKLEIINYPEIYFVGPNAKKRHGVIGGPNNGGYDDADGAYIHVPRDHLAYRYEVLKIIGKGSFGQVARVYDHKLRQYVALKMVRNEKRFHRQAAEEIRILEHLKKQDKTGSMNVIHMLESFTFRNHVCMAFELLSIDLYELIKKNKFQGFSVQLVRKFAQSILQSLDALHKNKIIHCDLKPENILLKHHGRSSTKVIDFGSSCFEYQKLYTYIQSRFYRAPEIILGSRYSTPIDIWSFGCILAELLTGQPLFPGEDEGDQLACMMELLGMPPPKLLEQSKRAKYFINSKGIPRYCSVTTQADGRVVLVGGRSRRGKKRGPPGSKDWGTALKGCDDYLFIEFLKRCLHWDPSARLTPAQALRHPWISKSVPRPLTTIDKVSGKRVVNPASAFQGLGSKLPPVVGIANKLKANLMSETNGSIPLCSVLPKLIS

C/C(=C1/C(=O)Nc2ccc(NC(N)=O)cc21)c1ccc[nH]1 gave a residual activity ([1]; compound 0.001 µM) of 79%, a residual activity ([1]; compound 0.01 µM) of 82% and a residual activity (CAMKK2 (human); compound 0.001 µM) of 101%. It also gave a residual activity (CAMKK2 (human); compound 0.01 µM) of 90%, a residual activity (CAMKK2 (human); compound 0.1 µM) of 60% and a residual activity (CSK (human); compound 0.01 µM) of 97%. For the same molecule, the residual activity (CSK (human); compound 0.1 µM) was 102%, the residual activity (CSNK1D (human); compound 0.001 µM) was 94% and the residual activity (CSNK1D (human); compound 0.01 µM) was 94%. The residual activity (CSNK1D (human); compound 0.1 µM) was 89%, the residual activity (DYRK3 (human); compound 0.001 µM) was 83% and the residual activity (DYRK3 (human); compound 0.01 µM) was 74%. For the same molecule, the residual activity (DYRK3 (human); compound 0.1 µM) was 33%, the residual activity (EPHA2 (human); compound 0.001 µM) was 97% and the residual activity (EPHA2 (human); compound 0.01 µM) was 101%. It also gave a residual activity (EPHA2 (human); compound 0.1 µM) of 87%, a residual activity (FGFR1 (human); compound 0.001 µM) of 96% and a residual activity (FGFR1 (human); compound 0.01 µM) of 61%. The residual activity (FGFR1 (human); compound 0.1 µM) was 18%, the residual activity (FLT1 (human); compound 0.001 µM) was 95% and the residual activity (FLT1 (human); compound 0.01 µM) was 50%. It also gave a residual activity (FLT1 (human); compound 0.1 µM) of 13%, a residual activity (GSK3B (human); compound 0.01 µM) of 92% and a residual activity (GSK3B (human); compound 0.1 µM) of 49%. For the same molecule, the residual activity (IGF1R (human); compound 0.1 µM) was 94%, the residual activity (INSR (human); compound 0.01 µM) was 102% and the residual activity (INSR (human); compound 0.1 µM) was 110%. It also gave a residual activity (LCK (mouse); compound 0.001 µM) of 97%, a residual activity (LCK (mouse); compound 0.01 µM) of 95% and a residual activity (LCK (mouse); compound 0.1 µM) of 64%. For the same molecule, the residual activity (MAPK11 (human); compound 0.001 µM) was 104%, the residual activity (MAPK11 (human); compound 0.01 µM) was 100% and the residual activity (MAPK11 (human); compound 0.1 µM) was 105%. It also gave a residual activity (MAPK14 (human); compound 0.001 µM) of 87%, a residual activity (MAPK14 (human); compound 0.01 µM) of 86% and a residual activity (MAPK14 (human); compound 0.1 µM) of 84%. The residual activity (MAPK15 (human); compound 0.001 µM) was 85%, the residual activity (MAPK15 (human); compound 0.01 µM) was 49% and the residual activity (MAPK15 (human); compound 0.1 µM) was 7%. The residual activity (MAPKAPK5 (human); compound 0.001 µM) was 100%, the residual activity (MAPKAPK5 (human); compound 0.01 µM) was 90% and the residual activity (MAPKAPK5 (human); compound 0.1 µM) was 94%. For the same molecule, the residual activity (MELK (human); compound 0.001 µM) was 86%, the residual activity (MELK (human); compound 0.01 µM) was 47% and the residual activity (MELK (human); compound 0.1 µM) was 9%. For the same molecule, the residual activity (PRKCZ (human); compound 0.001 µM) was 78%, the residual activity (PRKCZ (human); compound 0.01 µM) was 84% and the residual activity (PRKCZ (human); compound 0.1 µM) was 83%. It also gave a residual activity (ROCK2 (rat); compound 0.001 µM) of 88%, a residual activity (ROCK2 (rat); compound 0.01 µM) of 90% and a residual activity (ROCK2 (rat); compound 0.1 µM) of 84%. The residual activity (RPS6KA3 KD1 KD2 (human); compound 0.001 µM) was 82%, the residual activity (RPS6KA3 KD1 KD2 (human); compound 0.01 µM) was 65% and the residual activity (RPS6KA3 KD1 KD2 (human); compound 0.1 µM) was 19%. For the same molecule, the residual activity (SRC (human); compound 0.001 µM) was 84%, the residual activity (SRC (human); compound 0.01 µM) was 79% and the residual activity (SRC (human); compound 0.1 µM) was 71%.
Molecule NC(=O)Nc1ccc2c(c1)/C(=C/c1cc(-c3cccnc3)c[nH]1)C(=O)N2 has a residual activity ([1]; compound 0.1 µM) of 88%, a residual activity ([1]; compound 1.0 µM) of 77% and a residual activity ([1]; compound 10.0 µM) of 36%. The residual activity (CAMKK2 (human); compound 0.1 µM) was 67%, the residual activity (CAMKK2 (human); compound 1.0 µM) was 41% and the residual activity (CAMKK2 (human); compound 10.0 µM) was 35%. The residual activity (CSK (human); compound 0.1 µM) was 98%, the residual activity (CSK (human); compound 1.0 µM) was 69% and the residual activity (CSK (human); compound 10.0 µM) was 42%. For the same molecule, the residual activity (CSNK1D (human); compound 0.1 µM) was 90%, the residual activity (CSNK1D (human); compound 1.0 µM) was 59% and the residual activity (CSNK1D (human); compound 10.0 µM) was 20%. It also gave a residual activity (DYRK3 (human); compound 0.1 µM) of 19%, a residual activity (DYRK3 (human); compound 1.0 µM) of 4% and a residual activity (DYRK3 (human); compound 10.0 µM) of 1%. The residual activity (EPHA2 (human); compound 0.1 µM) was 93%, the residual activity (EPHA2 (human); compound 1.0 µM) was 54% and the residual activity (EPHA2 (human); compound 10.0 µM) was 20%. For the same molecule, the residual activity (FGFR1 (human); compound 0.1 µM) was 17%, the residual activity (FGFR1 (human); compound 1.0 µM) was 2% and the residual activity (FGFR1 (human); compound 10.0 µM) was 1%. The residual activity (FLT1 (human); compound 0.1 µM) was 7%, the residual activity (FLT1 (human); compound 1.0 µM) was 3% and the residual activity (FLT1 (human); compound 10.0 µM) was 1%. It also gave a residual activity (GSK3B (human); compound 0.1 µM) of 11%, a residual activity (GSK3B (human); compound 1.0 µM) of 7% and a residual activity (GSK3B (human); compound 10.0 µM) of 3%. It also gave a residual activity (IGF1R (human); compound 1.0 µM) of 33%, a residual activity (IGF1R (human); compound 10.0 µM) of 1% and a residual activity (INSR (human); compound 0.1 µM) of 112%. For the same molecule, the residual activity (INSR (human); compound 1.0 µM) was 101%, the residual activity (INSR (human); compound 10.0 µM) was 26% and the residual activity (LCK (mouse); compound 0.1 µM) was 44%. For the same molecule, the residual activity (LCK (mouse); compound 1.0 µM) was 10%, the residual activity (LCK (mouse); compound 10.0 µM) was 3% and the residual activity (MAPK11 (human); compound 0.1 µM) was 103%. It also gave a residual activity (MAPK11 (human); compound 1.0 µM) of 80%, a residual activity (MAPK11 (human); compound 10.0 µM) of 49% and a residual activity (MAPK14 (human); compound 0.1 µM) of 81%. For the same molecule, the residual activity (MAPK14 (human); compound 1.0 µM) was 80%, the residual activity (MAPK14 (human); compound 10.0 µM) was 45% and the residual activity (MAPK15 (human); compound 0.1 µM) was 5%. For the same molecule, the residual activity (MAPK15 (human); compound 1.0 µM) was 2%, the residual activity (MAPK15 (human); compound 10.0 µM) was 1% and the residual activity (MAPKAPK5 (human); compound 0.1 µM) was 95%. For the same molecule, the residual activity (MAPKAPK5 (human); compound 1.0 µM) was 50%, the residual activity (MAPKAPK5 (human); compound 10.0 µM) was 8% and the residual activity (MELK (human); compound 0.1 µM) was 16%. The residual activity (MELK (human); compound 1.0 µM) was 3%, the residual activity (MELK (human); compound 10.0 µM) was 0% and the residual activity (PRKCZ (human); compound 0.1 µM) was 85%. For the same molecule, the residual activity (PRKCZ (human); compound 1.0 µM) was 66%, the residual activity (PRKCZ (human); compound 10.0 µM) was 21% and the residual activity (ROCK2 (rat); compound 1.0 µM) was 37%. For the same molecule, the residual activity (ROCK2 (rat); compound 10.0 µM) was 7%, the residual activity (RPS6KA3 KD1 KD2 (human); compound 0.1 µM) was 38% and the residual activity (RPS6KA3 KD1 KD2 (human); compound 1.0 µM) was 32%. For the same molecule, the residual activity (RPS6KA3 KD1 KD2 (human); compound 10.0 µM) was 22%, the residual activity (SRC (human); compound 0.1 µM) was 41% and the residual activity (SRC (human); compound 1.0 µM) was 7%. It also gave a residual activity (SRC (human); compound 10.0 µM) of 1%.
